Experimental findings from ChEMBL document CHEMBL5223091, “Targeting the Mitotic Kinesin KIF18A in Chromosomally Unstable Cancers: Hit Optimization Toward an In Vivo Chemical Probe” (J Med Chem, 2022) are described below.

In series [1] the target is Centromere-associated protein E (Homo sapiens, UniProt Q02224). Nature of the series: Inhibition of recombinant GST-tagged human CENP-E assessed as inhibition of microtubule-stimulated ATPase activity preincubated for 30 mins followed by ATP addition and further incubated for 15 mins by ADP-Glo reagent based assay.
Centromere-associated protein E, sequence (Q02224 whole entry): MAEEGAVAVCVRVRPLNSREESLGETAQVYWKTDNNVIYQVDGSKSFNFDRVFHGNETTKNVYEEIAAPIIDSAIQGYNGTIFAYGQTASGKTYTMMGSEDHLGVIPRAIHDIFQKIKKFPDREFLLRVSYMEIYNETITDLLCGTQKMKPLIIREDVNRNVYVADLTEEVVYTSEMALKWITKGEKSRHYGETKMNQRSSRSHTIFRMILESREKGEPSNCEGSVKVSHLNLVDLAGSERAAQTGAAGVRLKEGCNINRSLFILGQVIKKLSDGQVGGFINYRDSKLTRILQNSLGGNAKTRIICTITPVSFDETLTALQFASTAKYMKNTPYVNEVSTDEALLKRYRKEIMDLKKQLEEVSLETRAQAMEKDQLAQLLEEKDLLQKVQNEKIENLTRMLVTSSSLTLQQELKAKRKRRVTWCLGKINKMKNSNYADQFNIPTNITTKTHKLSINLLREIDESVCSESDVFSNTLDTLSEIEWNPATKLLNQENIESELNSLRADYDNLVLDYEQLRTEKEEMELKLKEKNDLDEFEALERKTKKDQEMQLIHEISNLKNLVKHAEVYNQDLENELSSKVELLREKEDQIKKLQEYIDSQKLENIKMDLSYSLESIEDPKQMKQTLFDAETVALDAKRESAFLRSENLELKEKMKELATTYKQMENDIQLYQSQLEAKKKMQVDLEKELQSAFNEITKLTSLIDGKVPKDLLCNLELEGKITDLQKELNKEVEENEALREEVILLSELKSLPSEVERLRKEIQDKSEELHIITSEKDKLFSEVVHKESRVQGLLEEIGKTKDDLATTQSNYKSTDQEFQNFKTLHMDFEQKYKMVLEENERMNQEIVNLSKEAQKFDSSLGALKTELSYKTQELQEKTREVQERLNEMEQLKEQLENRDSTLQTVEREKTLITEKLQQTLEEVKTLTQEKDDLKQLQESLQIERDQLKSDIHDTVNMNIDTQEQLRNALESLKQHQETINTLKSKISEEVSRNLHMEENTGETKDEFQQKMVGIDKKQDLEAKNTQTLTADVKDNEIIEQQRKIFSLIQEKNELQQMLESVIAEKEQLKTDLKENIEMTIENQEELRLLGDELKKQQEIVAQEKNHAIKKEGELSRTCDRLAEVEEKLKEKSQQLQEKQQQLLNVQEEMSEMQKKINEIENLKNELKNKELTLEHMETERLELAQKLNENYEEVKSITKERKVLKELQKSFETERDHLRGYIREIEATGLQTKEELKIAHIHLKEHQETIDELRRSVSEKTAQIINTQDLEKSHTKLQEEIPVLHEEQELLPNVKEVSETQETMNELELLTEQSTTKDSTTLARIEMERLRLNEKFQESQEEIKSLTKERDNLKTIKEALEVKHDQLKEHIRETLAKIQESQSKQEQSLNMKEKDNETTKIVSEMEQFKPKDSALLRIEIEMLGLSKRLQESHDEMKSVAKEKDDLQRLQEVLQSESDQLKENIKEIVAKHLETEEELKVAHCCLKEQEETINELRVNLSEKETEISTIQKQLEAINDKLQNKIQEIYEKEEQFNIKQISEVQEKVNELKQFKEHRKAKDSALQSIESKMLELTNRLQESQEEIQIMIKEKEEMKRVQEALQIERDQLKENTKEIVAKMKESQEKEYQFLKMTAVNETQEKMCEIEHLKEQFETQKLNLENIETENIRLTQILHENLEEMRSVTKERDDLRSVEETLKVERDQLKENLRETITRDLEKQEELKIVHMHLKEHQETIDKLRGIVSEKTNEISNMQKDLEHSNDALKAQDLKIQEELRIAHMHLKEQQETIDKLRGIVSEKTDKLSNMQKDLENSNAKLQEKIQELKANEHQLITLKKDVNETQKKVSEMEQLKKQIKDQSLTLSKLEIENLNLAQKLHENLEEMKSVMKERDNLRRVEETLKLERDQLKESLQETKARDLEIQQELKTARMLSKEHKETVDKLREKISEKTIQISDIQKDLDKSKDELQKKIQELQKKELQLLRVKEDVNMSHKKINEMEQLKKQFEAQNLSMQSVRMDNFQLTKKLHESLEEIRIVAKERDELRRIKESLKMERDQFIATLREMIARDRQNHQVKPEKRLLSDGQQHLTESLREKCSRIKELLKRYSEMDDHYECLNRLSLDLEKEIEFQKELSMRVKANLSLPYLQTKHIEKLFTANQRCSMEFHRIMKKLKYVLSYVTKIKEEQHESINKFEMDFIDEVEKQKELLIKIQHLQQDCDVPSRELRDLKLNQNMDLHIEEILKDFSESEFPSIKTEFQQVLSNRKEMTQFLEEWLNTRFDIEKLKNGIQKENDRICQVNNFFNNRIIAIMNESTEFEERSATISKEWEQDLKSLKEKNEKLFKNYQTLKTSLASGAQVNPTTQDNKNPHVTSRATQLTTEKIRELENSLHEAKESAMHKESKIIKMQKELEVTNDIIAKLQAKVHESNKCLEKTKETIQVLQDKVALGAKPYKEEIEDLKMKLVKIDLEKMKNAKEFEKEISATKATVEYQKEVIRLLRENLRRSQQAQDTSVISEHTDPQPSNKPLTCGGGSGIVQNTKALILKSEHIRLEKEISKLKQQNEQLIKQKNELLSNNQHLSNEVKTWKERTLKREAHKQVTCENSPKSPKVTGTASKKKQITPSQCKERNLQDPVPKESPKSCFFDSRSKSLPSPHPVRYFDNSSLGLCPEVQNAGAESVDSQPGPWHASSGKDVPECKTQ
Series [2] is described as follows: Drug uptake in CD-1 mouse xenografted with human OVCAR-3 cells measured in tumor at 100 mg/kg, po measured after 8 hrs. It counts as ADME, organism-based, Neoplasm. To be noted: read-out: Drug uptake.
Series [3] can be described thus: Plasma concentration in CD-1 mouse xenografted with human OVCAR-3 cells at 100 mg/kg, po measured upto 24 hrs by LC-MS/MS analysis. It counts as ADME, organism-based.
The next series relates to OVCAR-3. Nature of the series: Antiproliferative activity against human OVCAR-3 cells by nuclear count assay. It is filed as functional, cell-based.
Series [4] can be described thus: Unbound fraction in CD-1 mouse plasma xenografted with human OVCAR-3 cells at 100 mg/kg, po by LC-MS/MS analysis. It counts as ADME, organism-based.
The nature of series [5]: Clearance in CD-1 mouse at 1 mg/kg, iv and 10 mg/kg, po. It counts as ADME, organism-based. To be noted: in vivo.
Series [6] in a line: Unbound fraction in CD-1 mouse plasma xenografted with human OVCAR-3 cells at 100 mg/kg, ip by LC-MS/MS analysis. It is filed as ADME, organism-based.
Series [7] is described as follows: Metabolic stability in mouse liver microsomes assessed as intrinsic clearance at 0.5 uM incubated upto 40 mins by LCMS analysis. It counts as ADME, Microsome. To be noted: read-out: CLH.
The nature of series [8]: AUC (0 to 24 hrs) in CD-1 mouse xenografted with human OVCAR-3 cells at 100 mg/kg, po by LC-MS/MS analysis. It is filed as ADME, organism-based. Details: dose 100 mg/kg, route po. To be noted: in vivo.
The nature of series [9]: Kinetic solubility of compound in FaSSIF. To be noted: read-out: Kinetic_solubility. It counts as ADME.
Series [10] can be described thus: Cmax in CD-1 mouse xenografted with human OVCAR-3 cells at 100 mg/kg, ip by LC-MS/MS analysis. Details: dose 100 mg/kg, route ip. It is filed as ADME, organism-based. To be noted: in vivo.
The nature of series [11]: Cmax in CD-1 mouse at 1 mg/kg, iv and 10 mg/kg, po. It counts as ADME, organism-based. Also noted: dose 10 mg/kg, route po. The following applies: in vivo.
The nature of series [12]: Plasma concentration in CD-1 mouse xenografted with human OVCAR-3 cells at 100 mg/kg, po measured after 8 hrs. It counts as ADME, organism-based.
The test system of another series is MDA-MB-157. Nature of the series: Induction of mitotic arrest in TP53 mutant human MDA-MB-157 cells assessed as multipolar spindle arrays by measuring pericentriolar material incubated for 24 hrs by mitotic index assay. To be noted: MDA-MB-157, 24 h. It is filed as functional, cell-based.
Series [13] concerns the target T1, Kinesin-like protein KIF18A (Mus musculus, UniProt Q91WD7).
T1 sequence (Q91WD7 whole entry): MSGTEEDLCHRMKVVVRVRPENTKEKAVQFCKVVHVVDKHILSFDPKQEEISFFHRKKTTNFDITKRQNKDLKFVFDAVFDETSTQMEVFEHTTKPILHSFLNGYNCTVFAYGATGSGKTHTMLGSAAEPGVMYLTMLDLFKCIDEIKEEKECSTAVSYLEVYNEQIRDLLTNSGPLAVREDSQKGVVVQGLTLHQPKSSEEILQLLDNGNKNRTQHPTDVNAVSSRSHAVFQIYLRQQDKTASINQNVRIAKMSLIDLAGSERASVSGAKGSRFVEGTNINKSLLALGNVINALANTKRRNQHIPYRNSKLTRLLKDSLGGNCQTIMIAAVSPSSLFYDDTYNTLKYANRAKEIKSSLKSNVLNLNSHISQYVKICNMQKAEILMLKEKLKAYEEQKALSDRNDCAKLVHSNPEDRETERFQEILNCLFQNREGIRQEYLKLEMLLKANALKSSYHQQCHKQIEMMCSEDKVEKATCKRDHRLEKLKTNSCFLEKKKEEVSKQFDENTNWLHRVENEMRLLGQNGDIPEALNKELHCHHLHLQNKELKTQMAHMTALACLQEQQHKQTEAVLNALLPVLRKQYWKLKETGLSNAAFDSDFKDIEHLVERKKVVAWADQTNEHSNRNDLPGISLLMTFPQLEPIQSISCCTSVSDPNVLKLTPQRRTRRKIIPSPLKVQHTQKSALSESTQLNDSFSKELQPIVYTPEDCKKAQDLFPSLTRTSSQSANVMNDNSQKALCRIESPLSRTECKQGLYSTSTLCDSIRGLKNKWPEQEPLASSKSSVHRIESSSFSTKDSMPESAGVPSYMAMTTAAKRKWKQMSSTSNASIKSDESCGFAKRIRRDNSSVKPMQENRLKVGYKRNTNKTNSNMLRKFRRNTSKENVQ
Nature of the series: Inhibition of recombinant His-tagged mouse KIF18A expressed in Trichoplusia ni insect cells assessed as inhibition of microtubule-stimulated ATPase activity preincubated for 30 mins followed by ATP addition and further incubated for 15 mins by ADP-Glo reagent based assay. Also noted: species or system Insect cell.

Series [14] can be described thus: Volume of distribution at steady state in CD-1 mouse at 1 mg/kg, iv and 10 mg/kg, po. It is filed as ADME, organism-based. The following applies: in vivo.

Structures are written as SMILES. pEC50, pIC50: −log10 of the molar value. Converted amounts (≈) assume the structure as drawn.

In the case of `CC(C)(C)NS(=O)(=O)c1cccc(NC(=O)c2ncc(NS(C)(=O)=O)nc2N2CCC3(CC2)CC3)n1`, the pIC50 in series [1] was 4.07; in the series with MDA-MB-157 it was 7.49; in series [13], 7.11. In addition, the concentration at 8 h in series [2] came out at 17.5 µM; in [12], 5.7 µM. The molecule further came in with a concentration at 24 h in series [3] of 0.016 µM. The negative logarithm of the EC50 (pEC50) with OVCAR-3 was 7.49. Also, the fraction unbound in [4] and in [6] was 0.022 throughout. This molecule gave a CL in [5] of 23.3 mL/min/kg. The microsomal CLint at 0.5 µM in series [7] stood at 64 µL/min/mg. In series [8], the AUC(0-t) turned out to be 25.7 µM·h. In [9], the solubility kinetic is 209 µM (≈ 112 µg/mL). The peak concentration (Cmax) is 22.6 µM in [10] and 2.15 µM in series [11]. Also, in series [14], the Vdss stood at 2 L/kg.
